Source: patent publication US20070093520A1, “Method of treatment of diarrhea-predominant irritable bowel syndrome in a subject” (priority 2005, published 2007)

Test system: diarrhea-predominant IBS subjects
Experiment: 3007 Study: open-label 52-week safety study, adverse events and withdrawals
Details: Placebo/Cilansetron 2 mg

Cc1nccn1C[C@H]1CCc2c(c3cccc4c3n2CCC4)C1=O [cilansetron, (R)-(−)-4,5,6,8,9,10-hexahydro-10-[(2-methyl-1H-imidazol-1-yl)methyl]-11H-pyrido-[3,2,1-jk]-carbazol-11-one]
8 (3%) n (%): TEAE: Skeletal and Cardiac Muscle Analyses | TEAE: Upper Respiratory Tract Infection NOS | TEAE: Viral Infections NEC
19 (7%) n (%): TEAE: Upper Respiratory Tract Infections - Pathogen Class Unspecified
12 (4%) n (%): TEAE: Urinary Tract Infections
9 (3%) n (%): TEAE: Vomiting NOS
21 (8%) n (%): TEAE leading to permanent discontinuation: Constipation (N=279)
10 (4%) n (%): TEAE: Rhinoviral Infections | TEAE: Urinary Tract Infection NOS
0 n (%): TEAE: Rectal Cramps | TEAE: Red Blood Cell Analyses | TEAE: Reproductive Organ and Breast Histopathology Procedures | TEAE: Respiratory Tract Infection NOS | TEAE: Rib Fracture | TEAE: Road Traffic Accident | TEAE: Seizures and Seizure Disorders NEC | TEAE: Sinus Headache | TEAE: Site Specific Injuries NEC | TEAE: Skin Fungal Infection NOS | TEAE: Soft Tissue Disorders NEC | TEAE: Spondyloarthropathies | TEAE: Spondylosis | TEAE: Staphylococcal Infection NOS | TEAE: Staphylococcal Infections | TEAE: Status Epilepticus | TEAE: Streptococcal Infection NOS | TEAE: Stress Fracture | TEAE: Temporomandibular Joint Disorder NOS | TEAE: Tension Headaches | TEAE: Thoracic Cage Fractures and Dislocations | TEAE: Tinea Pedis | TEAE: Tongue Coated | TEAE: Tongue Signs and Symptoms | TEAE: Tooth Disorder NOS | TEAE: Tooth Impacted | TEAE: Transient Global Amnesia | TEAE: Umbilical Hernia NOS | TEAE: Umbilical Hernias | TEAE: Urine Analysis Abnormal NOS | TEAE: Urobilin Urine Present | TEAE: Vasovagal Attack | TEAE: Weight Increased | TEAE: White Blood Cell Count Decreased | TEAE: White Blood Cells Urine Positive | TEAE leading to permanent discontinuation: Abdominal Pain Aggravated (N=279) | TEAE leading to permanent discontinuation: Alanine Aminotransferase Increased (N=279) | TEAE leading to permanent discontinuation: Angina Pectoris (N=279) | TEAE leading to permanent discontinuation: Appendicitis (N=279) | TEAE leading to permanent discontinuation: Asthma Aggravated (N=279) | TEAE leading to permanent discontinuation: Asthma NOS (N=279) | TEAE leading to permanent discontinuation: Blood Bilirubin Increased (N=279) | TEAE leading to permanent discontinuation: Blood Pressure Increased (N=279) | TEAE leading to permanent discontinuation: Blood Urine Present (N=279) | TEAE leading to permanent discontinuation: Bone Neoplasm Malignant (N=279) | TEAE leading to permanent discontinuation: Cardiac Disorders (N=279) | TEAE leading to permanent discontinuation: Dehydration (N=279) | TEAE leading to permanent discontinuation: Ear and Labyrinth Disorders (N=279) | TEAE leading to permanent discontinuation: Eructation (N=279) | TEAE leading to permanent discontinuation: Faecal Abnormality NOS (N=279) | TEAE leading to permanent discontinuation: Faeces Hard (N=279) | TEAE leading to permanent discontinuation: Gastric Irritation (N=279) | TEAE leading to permanent discontinuation: Headache NOS Aggravated (N=279) | TEAE leading to permanent discontinuation: Heart Rate Increased (N=279) | TEAE leading to permanent discontinuation: Hepatobiliary Disorders (N=279) | TEAE leading to permanent discontinuation: Hepatosplenomegaly NOS (N=279) | TEAE leading to permanent discontinuation: Hiatus Hernia (N=279) | TEAE leading to permanent discontinuation: Investigations (N=279) | TEAE leading to permanent discontinuation: Irritable Bowel Syndrome Aggravated (N=279) | TEAE leading to permanent discontinuation: Metabolism and Nutrition Disorders (N=279) | TEAE leading to permanent discontinuation: Migraine NOS (N=279) | TEAE leading to permanent discontinuation: Muscle Cramps (N=279) | TEAE leading to permanent discontinuation: Nausea (N=279) | TEAE leading to permanent discontinuation: Pregnancy, Puerperium and Perinatal Conditions (N=279) | TEAE leading to permanent discontinuation: Pruritus NOS (N=279) | TEAE leading to permanent discontinuation: Somnolence (N=279)
5 (2%) n (%): TEAE leading to permanent discontinuation: Flatulence (N=279)
40 (14%) n (%): TEAE leading to permanent discontinuation: Gastrointestinal Disorders (N=279)
3 (1%) n (%): TEAE: Renal Function Analyses | TEAE: Streptococcal Infections | TEAE: Tendon Disorders | TEAE leading to permanent discontinuation: Abdominal Pain Upper (N=279) | TEAE leading to permanent discontinuation: Headache NOS (N=279) | TEAE leading to permanent discontinuation: Neoplasms Benign, Malignant and Unspecified (Incl Cysts and Polyps) (N=279) | TEAE leading to permanent discontinuation: Skin and Subcutaneous Tissue Disorders (N=279)
1 (<1%) n (%): TEAE: Protein Urine Present | TEAE: Pruritus Ani | TEAE: Rectal Disorder NOS | TEAE: Red Blood Cells Urine | TEAE: Renal Bruit | TEAE: Rheumatoid Arthritis | TEAE: Rheumatoid Arthritis Aggravated | TEAE: Rotator Cuff Syndrome | TEAE: Sinusitis Acute NOS | TEAE: Skin Infection NOS | TEAE: Somnolence | TEAE: Speech and Language Abnormalities | TEAE: Spinal Cord and Nerve Root Disorders NEC | TEAE: Spondylitic Myelopathy | TEAE: Stomach Discomfort | TEAE: Tinea Cruris | TEAE: Tinea Infections | TEAE: Tissue Enzyme Analyses NEC | TEAE: Tooth Abscess | TEAE: Tooth Infection | TEAE: Toothache | TEAE: Tremor | TEAE: Tremor (Excl Congenital) | TEAE: Trigger Finger | TEAE: Upper Limb Fractures and Dislocations | TEAE: Urine Bilirubin Increased | TEAE: Weight Decreased | TEAE: White Blood Cell Analyses | TEAE leading to permanent discontinuation: Back Pain (N=279) | TEAE leading to permanent discontinuation: Bladder Prolapse (N=279) | TEAE leading to permanent discontinuation: Chest Discomfort (N=279) | TEAE leading to permanent discontinuation: Chest Pain (N=279) | TEAE leading to permanent discontinuation: Chest Wall Pain (N=279) | TEAE leading to permanent discontinuation: Colitis Ischaemic (N=279) | TEAE leading to permanent discontinuation: Cough (N=279) | TEAE leading to permanent discontinuation: Depression (N=279) | TEAE leading to permanent discontinuation: Diarrhoea Aggravated (N=279) | TEAE leading to permanent discontinuation: Diarrhoea Haemorrhagic (N=279) | TEAE leading to permanent discontinuation: Dyspepsia (N=279) | TEAE leading to permanent discontinuation: Epigastric Discomfort (N=279) | TEAE leading to permanent discontinuation: Eye Disorders (N=279) | TEAE leading to permanent discontinuation: Faecal Impaction (N=279) | TEAE leading to permanent discontinuation: Faecal Incontinence (N=279) | TEAE leading to permanent discontinuation: Fatigue (N=279) | TEAE leading to permanent discontinuation: Fibroma NOS (N=279) | TEAE leading to permanent discontinuation: Gastrointestinal Motility Disorder NOS (N=279) | TEAE leading to permanent discontinuation: Haemorrhoidal Haemorrhage (N=279) | TEAE leading to permanent discontinuation: Hallucination NOS (N=279) | TEAE leading to permanent discontinuation: Hallucination, Auditory (N=279) | TEAE leading to permanent discontinuation: Lethargy (N=279) | TEAE leading to permanent discontinuation: Psychiatric Disorders (N=279) | TEAE leading to permanent discontinuation: Psychotic Disorder NOS (N=279) | TEAE leading to permanent discontinuation: Rash Macular (N=279) | TEAE leading to permanent discontinuation: Rash NOS (N=279) | TEAE leading to permanent discontinuation: Rectal Disorder NOS (N=279) | TEAE leading to permanent discontinuation: Rectal Tenesmus (N=279) | TEAE leading to permanent discontinuation: Renal and Urinary Disorders (N=279) | TEAE leading to permanent discontinuation: Respiratory, Thoracic and Mediastinal Disorders (N=279) | TEAE leading to permanent discontinuation: Stomach Discomfort (N=279) | TEAE leading to permanent discontinuation: Suicidal Ideation (N=279)
4 (1%) n (%): TEAE: Rectal Haemorrhage | TEAE: Triglyceride Analyses | TEAE leading to permanent discontinuation: General Disorders and Administration Site Conditions (N=279) | TEAE leading to permanent discontinuation: Nervous System Disorders (N=279)
13 (5%) n (%): TEAE: Sinusitis NOS
2 (<1%) n (%): TEAE: Rectal Tenesmus | TEAE: Rheumatoid Arthropathies | TEAE: Skin Structures and Soft Tissue Infections | TEAE: Sleep Apnoea Syndrome | TEAE: Sleep Apnoeas | TEAE: Tendonitis | TEAE: Urine Ketone Body Present | TEAE: Urine Leukocyte Esterase Positive | TEAE: Vascular Auscultatory Investigations | TEAE: Vascular Tests NEC (Incl Blood Pressure) | TEAE: Viral Infection NOS | TEAE leading to permanent discontinuation: Abdominal Distension (N=279) | TEAE leading to permanent discontinuation: Abdominal Pain Lower (N=279) | TEAE leading to permanent discontinuation: Diarrhoea NOS (N=279) | TEAE leading to permanent discontinuation: Dizziness (N=279) | TEAE leading to permanent discontinuation: Musculoskeletal and Connective Tissue Disorders (N=279) | TEAE leading to permanent discontinuation: Rectal Haemorrhage (N=279)
6 (2%) n (%): TEAE: Urinalysis NEC | TEAE leading to permanent discontinuation: Abdominal Pain NOS (N=279)
217 (78%) n (%): TEAE: Total Number of Subjects with at Least One TEAE
